Measured values as given in patent US20230357233A1, “HETEROARYL COMPOUNDS, PREPARATION METHODS AND USES THEREOF” (INVENTISBIO CO., LTD., priority 2020, published 2023).

Columns and labels:
[1] = target: Ba/F3_KRAS^G12D cells (Homo sapiens, UniProt P01116, G12D, cells depend on it); assay: Ba/F3 KRAS^G12D cell proliferation assay (cell-titer Glo); assay type: cell-based; conditions: cell growth inhibition, treated with the compounds for 3 days, read-out: BaF3_KRAS^G12D IC50
[2] = target: recombinant human KRAS^G12D protein (Homo sapiens, UniProt P01116, G12D); assay: Temperature-dependent Fluorescence (TdF) KRAS^G12D protein binding assay; conditions: 6 μM KRAS^G12D Protein, 10 μM compound, Sypro Orange; Kd calculated from fluorescent shift
Procedure, shortened: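 Sypro Orange thermal-shift assay, heating from 30 to 95 °C with readings every 0.4 °C (ex 470/em 570 nm). Binding is gauged as ΔTm with versus without compound. Kd is calculated from the degree of the unfolding-temperature shift.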

Sequence of recombinant human KRAS^G12D protein (P01116 1-188 isoform P01116-2 G12D): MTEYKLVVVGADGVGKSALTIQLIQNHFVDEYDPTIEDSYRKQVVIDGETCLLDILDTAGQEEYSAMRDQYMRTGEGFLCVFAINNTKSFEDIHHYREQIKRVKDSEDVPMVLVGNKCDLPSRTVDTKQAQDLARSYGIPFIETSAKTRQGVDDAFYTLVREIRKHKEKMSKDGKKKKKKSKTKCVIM
Sequence of Ba/F3_KRAS^G12D cells (P01116 whole entry G12D): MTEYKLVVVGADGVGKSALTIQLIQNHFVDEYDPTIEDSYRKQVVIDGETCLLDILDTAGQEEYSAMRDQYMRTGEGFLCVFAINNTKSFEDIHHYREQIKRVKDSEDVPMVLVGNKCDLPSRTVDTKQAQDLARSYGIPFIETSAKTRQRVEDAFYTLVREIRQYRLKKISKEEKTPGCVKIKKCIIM

C#Cc1c(F)ccc2cc(O)cc(-c3nc(OC)c4c(N5CC6CCC(C5)N6)nc(OC[C@]56CCCN5[C@@H](COC(=O)N(C)C)CC6)nc4c3F)c12 [Compound 176]
GI50 [1]: < 500 nM
Kd [2]: ≤ 500 nM

C#Cc1c(F)ccc2cc(O)cc(-c3nc(OC(C)C)c4c(N5CC6CCC(C5)N6)nc(OC[C@@H]5CCCN5C)nc4c3F)c12 [Compound 195]
GI50 [1]: < 500 nM
Kd [2]: ≤ 500 nM

C#Cc1c(F)ccc2cc(O)cc(-c3nc(OC(C)C)c4c(N5CC6CCC(C5)N6)nc(OC[C@@H]5C[C@@H](F)CN5C)nc4c3F)c12 [Compound 197]
GI50 [1]: < 500 nM
Kd [2]: ≤ 500 nM
